This experiment addresses T1, recombinant human Myt1 (full length PKMYT1) (Homo sapiens, UniProt Q99640).
T1 sequence (Q99640 1-499): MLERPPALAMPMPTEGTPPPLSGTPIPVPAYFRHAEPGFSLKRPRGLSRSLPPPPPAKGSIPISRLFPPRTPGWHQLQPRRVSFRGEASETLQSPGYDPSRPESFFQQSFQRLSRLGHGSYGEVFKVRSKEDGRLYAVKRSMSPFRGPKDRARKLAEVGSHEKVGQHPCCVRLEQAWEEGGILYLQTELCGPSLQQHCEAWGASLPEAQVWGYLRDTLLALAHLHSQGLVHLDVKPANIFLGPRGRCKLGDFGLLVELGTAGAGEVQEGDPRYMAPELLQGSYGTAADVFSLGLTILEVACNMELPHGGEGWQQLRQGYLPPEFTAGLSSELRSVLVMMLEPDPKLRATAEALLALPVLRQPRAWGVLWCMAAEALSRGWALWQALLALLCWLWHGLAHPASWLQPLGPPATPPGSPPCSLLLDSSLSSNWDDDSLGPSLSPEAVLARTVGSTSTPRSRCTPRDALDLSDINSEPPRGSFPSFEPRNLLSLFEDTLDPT
Kind of experiment: ADP-Glo assay (Myt1 kinase activity). Background: In ADP-Glo the light output rises with the ADP produced.
As usually defined, the IC50 is the concentration at which inhibition is half-maximal. In the case of `Cc1c([C@@H]2C[C@H]2C)cnc2c(-c3ccc(F)c4[nH]ncc34)c(N)c(=O)[nH]c12` (racemic) [Example 144, 3-Amino-4-(7-fluoro-1H-indazol-4-yl)-8-methyl-7-[rac-(1R,2R)-2-methylcyclopropyl]-1H-1,5-naphthyridin-2-one], the IC50 stood at 11.4 nM.
On to `Cc1cc2[nH]c(=O)c(N)c(-c3ccc(F)c4[nH]ncc34)c2nc1Cl` [Example 3, 3-Amino-6-chloro-4-(7-fluoro-1H-indazol-4-yl)-7-methyl-1H-1,5-naphthyridin-2-one], for which the half-maximal inhibitory concentration (IC50) was less than 10 nM.
Then `Nc1c(-c2ccc(F)c3[nH]ncc23)c2ncc(F)cc2[nH]c1=O` [Example 4], with 48.1 nM; and `COc1cnc2c(-c3ccc(F)c4[nH]ncc34)c(N)c(=O)[nH]c2c1` [Example 6, 3-Amino-4-(7-fluoro-1H-indazol-4-yl)-7-methoxy-1H-1,5-naphthyridin-2-one], with 22.6 nM.
Then `Cn1cncc1-c1cnc2c(-c3ccc(F)c4[nH]ncc34)c(N)c(=O)[nH]c2c1` [Example 8, 3-Amino-4-(7-fluoro-1H-indazol-4-yl)-7-(3-methylimidazol-4-yl)-1H-1,5-naphthyridin-2-one], with 11.6 nM; and `Nc1c(-c2ccc(F)c3[nH]ncc23)c2ncc(-c3ccn[nH]3)cc2[nH]c1=O` [Example 9, 3-Amino-4-(7-fluoro-1H-indazol-4-yl)-7-(1H-pyrazol-5-yl)-1H-1,5-naphthyridin-2-one], with 16.1 nM.
Take `Nc1c(-c2ccc(F)c3[nH]ncc23)c2ncc(-c3ccns3)cc2[nH]c1=O` [Example 10, 3-Amino-4-(7-fluoro-1H-indazol-4-yl)-7-isothiazol-5-yl-1H-1,5-naphthyridin-2-one]: the IC50 is 42.9 nM.
Then `Nc1c(-c2ccc(F)c3[nH]ncc23)c2ncc(-c3ccc(F)cn3)cc2[nH]c1=O` [Example 14], with 44.6 nM; and `Nc1c(-c2ccc(F)c3[nH]ncc23)c2ncc(-c3nccs3)cc2[nH]c1=O` [Example 16, 3-Amino-4-(7-fluoro-1H-indazol-4-yl)-7-thiazol-2-yl-1H-1,5-naphthyridin-2-one], with 11.3 nM.
Regarding `Cc1cc2[nH]c(=O)c(N)c(-c3ccc(F)c4[nH]ncc34)c2nc1C1CC1` [Example 18, 3-Amino-6-cyclopropyl-4-(7-fluoro-1H-indazol-4-yl)-7-methyl-1H-1,5-naphthyridin-2-one], the IC50 is 10.4 nM.
Then `Nc1c(-c2ccc(F)c3[nH]ncc23)c2ncc(N3CCOCC3)cc2[nH]c1=O` [Example 19, 3-Amino-4-(7-fluoro-1H-indazol-4-yl)-7-morpholino-1H-1,5-naphthyridin-2-one], with 30.3 nM; and `CC(C)(O)c1cnc2c(-c3ccc(F)c4[nH]ncc34)c(N)c(=O)[nH]c2c1` [Example 20, 3-Amino-4-(7-fluoro-1H-indazol-4-yl)-7-(1-hydroxy-1-methyl-ethyl)-1H-1,5-naphthyridin-2-one], with 24.2 nM; and `Cc1cc2[nH]c(=O)c(N)c(-c3ccc(F)c4[nH]ncc34)c2nc1Br` [Example 21, 3-Amino-6-bromo-4-(7-fluoro-1H-indazol-4-yl)-7-methyl-1H-1,5-naphthyridin-2-one], with 10.3 nM.
`Cc1cc2[nH]c(=O)c(N)c(-c3ccc(F)c4[nH]ncc34)c2nc1N1CCN(C)CC1` [Example 22, 3-Amino-4-(7-fluoro-1H-indazol-4-yl)-7-methyl-6-(4-methylpiperazin-1-yl)-1H-1,5-naphthyridin-2-one]: the IC50 was less than 10 nM.
For `Cc1cc2[nH]c(=O)c(N)c(-c3ccc(F)c4[nH]ncc34)c2nc1NC(C)C` [Example 23, 3-Amino-4-(7-fluoro-1H-indazol-4-yl)-6-(isopropylamino)-7-methyl-1H-1,5-naphthyridin-2-one], the half-maximal inhibitory concentration (IC50) came out at 10.7 nM.
Consider `Cc1cc2[nH]c(=O)c(N)c(-c3ccc(F)c4[nH]ncc34)c2nc1N1CCC(O)C1` (centres unmarked) [Example 24, 3-Amino-4-(7-fluoro-1H-indazol-4-yl)-6-(3-hydroxypyrrolidin-1-yl)-7-methyl-1H-1,5-naphthyridin-2-one], for which the IC50 amounted to 15.6 nM.
`Cc1cc2[nH]c(=O)c(N)c(-c3ccc(F)c4[nH]ncc34)c2nc1N1CCOCC1` [Example 25, 3-Amino-4-(7-fluoro-1H-indazol-4-yl)-7-methyl-6-morpholino-1H-1,5-naphthyridin-2-one]: the IC50 worked out at 18.8 nM.
Then `Cc1cc2[nH]c(=O)c(N)c(-c3ccc(F)c4[nH]ncc34)c2nc1N1CC2(COC2)C1` [Example 26, 3-Amino-4-(7-fluoro-1H-indazol-4-yl)-7-methyl-6-(2-oxa-6-azaspiro[3.3]heptan-6-yl)-1H-1,5-naphthyridin-2-one], with less than 10 nM.
Then `Cc1cc2[nH]c(=O)c(N)c(-c3ccc(F)c4[nH]ncc34)c2nc1N1CC2(CN(C)C2)C1` [Example 27, 3-Amino-4-(7-fluoro-1H-indazol-4-yl)-7-methyl-6-(6-methyl-2,6-diazaspiro[3.3]heptan-2-yl)-1H-1,5-naphthyridin-2-one], with 21.2 nM; and `Cc1cc2[nH]c(=O)c(N)c(-c3ccc(F)c4[nH]ncc34)c2nc1N1CCN(C(C)C)CC1` [Example 28, 3-Amino-4-(7-fluoro-1H-indazol-4-yl)-6-(4-isopropylpiperazin-1-yl)-7-methyl-1H-1,5-naphthyridin-2-one], with 29.1 nM.
Next, `Cc1cc2[nH]c(=O)c(N)c(-c3ccc(F)c4[nH]ncc34)c2nc1N1CCN(C2CC2)CC1` [Example 29, 3-Amino-6-(4-cyclopropylpiperazin-1-yl)-4-(7-fluoro-1H-indazol-4-yl)-7-methyl-1H-1,5-naphthyridin-2-one]: 12 nM; `Cc1cc2[nH]c(=O)c(N)c(-c3ccc(F)c4[nH]ncc34)c2nc1N1CC2CC1CN2C` (centres unmarked) [Example 30, 3-Amino-4-(7-fluoro-1H-indazol-4-yl)-7-methyl-6-(5-methyl-2,5-diazabicyclo[2.2.1]heptan-2-yl)-1H-1,5-naphthyridin-2-one]: 15.3 nM.
For the compound `Cc1cc2[nH]c(=O)c(N)c(-c3ccc(F)c4[nH]ncc34)c2nc1N1CC2CCC1CN2C` (centres unmarked) [Example 31, 3-Amino-4-(7-fluoro-1H-indazol-4-yl)-7-methyl-6-(5-methyl-2,5-diazabicyclo[2.2.2]octan-2-yl)-1H-1,5-naphthyridin-2-one], the IC50 was 21.3 nM.
Next, `Nc1c(-c2cccc3[nH]ncc23)c2ncc(C3CC3)cc2[nH]c1=O` [Example 34, 3-Amino-7-cyclopropyl-4-(1H-indazol-4-yl)-1H-1,5-naphthyridin-2-one]: 19.3 nM; `Nc1c(-c2cccc3[nH]ncc23)c2ncc(-c3nccs3)cc2[nH]c1=O` [Example 35, 3-Amino-4-(1H-indazol-4-yl)-7-thiazol-2-yl-1H-1,5-naphthyridin-2-one]: 25.6 nM.
For the compound `Nc1c(-c2cc(F)cc3[nH]ncc23)c2ncc(Cl)cc2[nH]c1=O` [Example 36, 3-Amino-7-chloro-4-(6-fluoro-1H-indazol-4-yl)-1H-1,5-naphthyridin-2-one], the IC50 was 37.8 nM.
Next, `Cc1cc2[nH]c(=O)c(N)c(-c3ccc(F)c4[nH]ncc34)c2nc1N1CCNCC1` [Example 44, 3-Amino-4-(7-fluoro-1H-indazol-4-yl)-7-methyl-6-piperazin-1-yl-1H-1,5-naphthyridin-2-one]: less than 10 nM; `Cc1cc2[nH]c(=O)c(N)c(-c3ccc(F)c4[nH]ncc34)c2nc1OC1CCC1` [Example 46, 3-Amino-6-(cyclobutoxy)-4-(7-fluoro-1H-indazol-4-yl)-7-methyl-1H-1,5-naphthyridin-2-one]: 10.6 nM.
Then `Cc1cc2[nH]c(=O)c(N)c(-c3ccc(F)c4[nH]ncc34)c2nc1OCC1CC1` [Example 47, 3-Amino-6-(cyclopropylmethoxy)-4-(7-fluoro-1H-indazol-4-yl)-7-methyl-1H-1,5-naphthyridin-2-one], with less than 10 nM.
Take `Cc1cc2[nH]c(=O)c(N)c(-c3ccc(F)c4[nH]ncc34)c2cc1C` [Example 48, 3-Amino-4-(7-fluoro-1H-indazol-4-yl)-6,7-dimethyl-1H-quinolin-2-one]: the concentration for half-maximal inhibition (IC50) was 27.1 nM.
For `Cc1c(Cl)nc2c(-c3ccc(F)c4[nH]ncc34)c(N)c(=O)[nH]c2c1C` [Example 49, 3-Amino-6-chloro-4-(7-fluoro-1H-indazol-4-yl)-7,8-dimethyl-1H-1,5-naphthyridin-2-one], the IC50 was less than 10 nM.
As for `Nc1c(-c2ccc(F)c3[nH]ncc23)c2nccc(Cl)c2[nH]c1=O` [Example 50, 3-Amino-8-chloro-4-(7-fluoro-1H-indazol-4-yl)-1H-1,5-naphthyridin-2-one], the IC50 is less than 10 nM.
Next, `COc1c(C)cnc2c(-c3ccc(F)c4[nH]ncc34)c(N)c(=O)[nH]c12` [Example 51, 3-Amino-4-(7-fluoro-1H-indazol-4-yl)-8-methoxy-7-methyl-1H-1,5-naphthyridin-2-one]: 17.9 nM; `Cc1nc2c(-c3ccc(F)c4[nH]ncc34)c(N)c(=O)[nH]c2cc1Cl` [Example 52, 3-Amino-7-chloro-4-(7-fluoro-1H-indazol-4-yl)-6-methyl-1H-1,5-naphthyridin-2-one]: less than 10 nM; `Cc1cnc2c(-c3ccc(F)c4[nH]ncc34)c(N)c(=O)[nH]c2c1Cl` [Example 53, 3-Amino-8-chloro-4-(7-fluoro-1H-indazol-4-yl)-7-methyl-1H-1,5-naphthyridin-2-one]: 10.7 nM.

The values above are taken from patent US20260078122A1, “INDAZOLE COMPOUNDS AS PKMYT1 KINASE INHIBITORS” (Hoffmann-La Roche Inc., priority 2023, published 2026).
